Results published in US10292992B2, “Selective high-affinity polydentate ligands and methods of making such” (LAWRENCE LIVERMORE NATIONAL SECURITY, LLC, priority 2008, dated 2019).
Entries after “also recorded” stand apart in the source; their conditions may differ.

How the values were obtained:
HLA-DR10 = test: NMR screening of ligands for binding to HLA-DR10; set-up: species or system human
Text: Determination of ligand binding and orientation can also be determined using a number of different methods. These include, but are not limited to Saturation Transfer Difference nuclear magnetic resonance (Mayer and Meyer (1999) Angew Chem Int Edit, 38:1784-1788) and Transfer NOE (trNOE) nuclear magnetic resonance (NMR) spectroscopy (Henrichsen et al. (1999) Angew Chem Int Edit., 38:98-102; Cosman et al. (2002) Chem Res Toxicol 15: 1218-1228). These methods can be used to screen the ligands in mixtures of several to several hundred per experiment to determine which ligands bind to the target molecule(s) e.g., under biologically relevant conditions and to determine which ligands bind to the same (or different) sites. Diffusion experiments (Lin et al. (1997) J. Organic Chem., 62: 8930-8931) can also be performed with those ligands that have been determined to bind in order to assess the relative binding affinity of each compound.
As a result of the computational docking, 30 compounds from both the Site 1 and Site 2 lists were experimentally screened by NMR.
A number of cell surface protein receptors have been identified that distinguish malignant cancer cells from their normal counterparts. […] This has led to the development of a variety of antibody-based, receptor-specific reagents conjugated to radioisotopes for use in radio-immunotherapy. […]

Raji cells = test: 3-D confocal microscopy, Raji cells; type: cell-based, human; settings: biotinylated reagent, 1 hr; 10 μM SHAL or 10 nM chLym-1; listed as parent SHAL
Protocol: SHAL binding and internalization by Raji and Jurkat's cells was assessed using the method described previously by O'Donnell et al. (O'Donnell et al. (1998) Prostate 37:91-97). Experiments were conducted comparing the binding of (DvLPBaPPP)2LLDo (the parent SHAL), its hexa-arginine analog (DvLPBaPPP)2LArg6AcLLDo, and chimeric Lym-1 (chLym-1) to Raji cells. All steps were performed at 20° C., unless indicated.
Four million Raji cells (>92% viability) in log phase growth were pelleted at 300×g, washed, and blocked for 30 min in 1 ml of 1% fraction V BSA in PBS, with constant rotation. Cells were then incubated 1 hr, at 1 million per 250 μl, with either 1% BSA in PBS or a biotinylated primary reagent: 10 nM chLym-1, 10 μM parent SHAL, or 10 μM hexa-arginine SHAL. After four washes (two in 1% BSA in PBS, two in PBS), 50 μl of the cell suspensions was applied to freshly poly-L-Lysine coated slides, and cells were allowed to adhere for 10 min in a humid chamber. Fixation and permeabilization were performed at −20° C. by using a 4 min exposure to methanol. Jurkat's cells were treated in the same manner as a control.
Slides were then washed twice in PBS and blocked in 10% fetaplex serum (Gemini Bioproducts, West Sacramento, Calif.) in PBS for 15 min and washed once in PBS. The detection reagent, Streptavidin AlexaFluor 610 (Invitrogen, Carlsbad, Calif.) was diluted 1/500 in diluent, 100 μl was applied; a parafilm cover slip was layered over the solution to prevent evaporation. The slides were incubated in a humid chamber for 30 min., washed 5 times for 5 min each in PBS, and rinsed briefly in double distilled H2O. After the slides dried, cover slips were mounted with ProlongGold with 4′,6-diamidino-2-phenylindole (DAPI, Invitrogen, Carlsbad, Calif.). The slides were viewed with an Olympus FV1000 laser scanning confocal microscope and data were collected as Z-scans at 160×, with focal sections being taken 1 μm apart through the cell.

[1] = tested on: Raji cells expressing HLA-DR10; test: Whole cell binding assay with 111In-labeled SHAL; type: cell-based, human
Protocol: Raji human Burkitt's lymphoma B-cells (American Type Culture Collection, Manassas, Va.) were maintained in RPMI-1640 media supplemented with 10% fetal bovine serum, 2mM L-glutamine, 1 mM sodium pyruvate, 1% of a solution of nonessential amino acids (GIBCO #11140-050), and 100 units/ml of Penicillin G, 100 μg/ml Streptomycin, and 0.25 μg/ml of Amphotericin B at 37° C. in a humidified 5% CO2 atmosphere. Jurkat's cells (American Type Culture Collection, Manassas, Va.), an acute leukemia T-cell line, were maintained in the same medium with the addition of 10 mM 4-(2-hydroxyethyl)-1-piperazineethanesulfonic acid (HEPES).
A series of experiments were conducted to quantify the uptake of the ^111In-labeled parent SHAL (DvLPBaPPP)2LLDo and its hexa-arginine analog (DvLPBaPPP)2LArg6AcLLDo by Raji cells, a cell line that has been previously shown to express the HLA-DR10 variant. The assays were conducted using aliquots containing 10^6 cells suspended in 150 μl of PBS with 5% bovine serum albumin (BSA). Aliquots of cells were treated with 0.1, 1, 5, 10 or 25 ng of ^111In-labeled (DvLPBaPPP)2LLDo or (DvLPBaPPP)2LArg6AcLLDo for one hour at both 4° C. and 22° C. The tubes containing the treated cells were centrifuged to separate the cell pellet from the supernatant and the two fractions were counted in a calibrated gamma well counter to determine the amount of bound and free SHAL. Half of the cell pellets were washed twice with PBS and incubated at 22° C. for 15 min before centrifuging them again. The pooled washes and washed cell pellets were subsequently counted in the gamma well counter to assess how much of the bound SHAL could be removed by washing.
In vitro cell binding experiments were conducted using ^111In-labeled parent SHAL and the hexa-arginine SHAL analog to quantify SHAL uptake and to evaluate the effect of adding the hexa-arginine tag. Uptake was assessed using Raji cells, a lymphoma cell line expressing HLA-DR10. Aliquots containing 10^6 cells were incubated with increasing amounts of SHAL containing ^111In labeled SHAL as a tracer, and cell-associated ^111In was measured before and after washing the cell pellets.

HLA-DR10 protein = test: Surface plasmon resonance binding of SHALs to isolated HLA-DR10 protein; set-up: species or system human; settings: biotinylated versions of the SHALs immobilized on streptavidin chip; HLA-DR10 isolated from Raji cells
Text: In certain embodiments, the binding affinities of the best SHALs can be estimated by mass spectrometry of the SHAL-target complexes, followed by a more accurate surface plasmon resonance (SPR) spectroscopy (Shuck (1997) Annu Rev Biophys Biomol Struct., 26: 541-566; Van Regenmortal (2001) Cell Mol Life Sci., 58: 794-800) measurement of the SHAL-target binding affinity using for example, the IASYS Plus or BiaCore instruments. In order to perform the SPR measurement, biotin can be added to the linker through a third functional group (as described above) and the SHAL can be bound to commercially available streptavidin coated chips. […] Experiments can be performed to test the selectivity of SHAL binding to targets in the presence of molecules related to the targets. Thus, for example, where the SHAL is directed to HLA-DR10, the SHAL can be evaluated for its ability to bind target molecules in the presence of Raji cell surface proteins extracted and separated by affinity chromatography. After treating the gel with the biotinylated SHAL and rinsing out excess unbound SHAL, the location of the bound SHAL can be detected by staining with Rhodamine tagged streptavidin.
Protein binding experiments were conducted using surface plasma resonance on a Biacore 3000 (Biacore, Piscataway, N.J.) at 25° C. A research grade streptavidin immobilized chip (SA chip, Biacore) was preconditioned and normalized according to the manufacturers instructions. Biotin labeled SHALs were dissolved in DMSO and diluted in 1.05×PBS (Biacore) to a final concentration of 1×PBS pH 7.4, 5% DMSO, to match the running buffer. These SHALs were injected over the flow cell to yield a surface density of 500-1000RU (response units). Biotin (50 μM E-Z Link Amine-PEO2-Biotin, Pierce) was injected over all cells for 1 minute at 20 μl/min as a block to reduce non-specific binding. One flow cell was used as a reference cell and a different SHAL was immobilized on each of the three other cells.
Experiments measuring the binding of HLA-DR10 to the SHALs were carried out at a flow rate of 30 μl/minute in PBS pH7.4 running buffer using all 4 flow cells. HLA-DR10 isolated from Raji cells (Rose et al. (1996) Cancer Immunol Immunother 43:26-30) was diluted in running buffer to a final concentration ranging from […] and a series of concentrations were run randomly in triplicate. Protein was injected for 3 minutes, allowed to dissociate for 5 minutes followed by regeneration of the surface using a 1 minute injection of 0.1% sodium dodecylsulfate (SDS) followed by a washing step with a 2 minute injection of running buffer. The data, which were double referenced by subtracting the blank reference surface and an average of 5 blank injections, were processed using the program SCRUBBER (University of Utah).
Using homology modeling, HLA-DR amino acid residues critical for Lym-1 binding were mapped on a 3-D model of the HLA-DR10ß subunit (Balhorn et al, (2007) Clin. Cancer Res., 13(Suppl. 18): S5621-S5628). Cavities within the Lym-1 epitopic surface of the protein were identified using SPHGEN (Kuntz et al. (1982) J. Mol Biol. 161: 269-288; Desjarlais et al. (1988) J. Med. Chem., 31: 722-729). After computational ligand docking for each of the cavities, a combination of NMR spectroscopy, surface plasmon resonance (BIAcore 3000; Biacore, Piscataway, N.J.) and competitive binding experiments were used to confirm ligand binding to HLA-DR10 protein. […]

[2] = tested on: cultured cell lines containing HLA-DR10; settings: shown previously (Balhorn et al. 2007); cited from earlier work

Nc1ccc(Oc2ccc(C(=O)c3ccc(C(=O)c4ccc(Oc5ccc(N)cc5)cc4)cc3)cc2)cc1 [1,4-phenylenebis[[4-(4-aminophenoxy)phenyl]methanone]]
binding to HLA-DR10 in subsequent screenings (HLA-DR10): precipitated onto the target protein

CC(C)C(NS(=O)(=O)c1ccc(N=Nc2ccc(N(C)C)cc2)cc1)C(=O)NC(CCCCNC(=O)COCCOCCNC(=O)c1ccc(NC(=O)C(CCCNC(=N)N)NC(=O)c2ccccc2)cc1)C(=O)NCCOCCOCC(=O)NCCOCCOCC(=O)NCCOCCOCC(=O)NCCCCC(NC(=O)COCCOCCNC(=O)COCCOCCNC(=O)COCCOCCNC(=O)C(CCCCNC(=O)COCCOCCNC(=O)c1ccc(NC(=O)C(CCCNC(=N)N)NC(=O)c2ccccc2)cc1)NC(=O)C(NS(=O)(=O)c1ccc(N=Nc2ccc(N(C)C)cc2)cc1)C(C)C)C(=O)NC(CCCCNC(=O)CN1CCN(CC(=O)O)CCN(CC(=O)O)CCN(CC(=O)O)CC1)C(=O)O (centres unmarked) [(DvLPBaPPP)2LLDo]
SHAL binding, uptake and localization in Raji cells (Raji cells): intracellular binding; also recorded: Nuclear staining was not observed; also recorded: taken up and internalized | pmoles SHAL Bound/10^6 cells unwashed ([1]; 5.3 pmoles of 111In-labeled SHAL, unwashed cell pellets): 0.568 ± 0.091 pmoles SHAL Bound/10^6 cells | pmoles SHAL Bound/10^6 cells Washed ([1]; 5.3 pmoles of 111In-labeled SHAL, washed two times with BSA/buffer): 0.263 ± 0.000 pmoles SHAL Bound/10^6 cells | proportion of SHAL retained by the cells after washing ([1]; Raji cells, after washing): ~46% | Percent SHAL Retained ([1]; after washing two times): 46% | Kd (HLA-DR10 protein): ~21 nM | selective binding to HLA-DR10 expressing cell lines [2]: bind selectively to HLA-DR10 expressing cell lines
